Measured values reported in ChEMBL document CHEMBL1136793, “First dual aromatase-steroid sulfatase inhibitors” (J Med Chem, 2003).
Activity calls are given as the source filed them. No cut-off for these calls is given here.

Key:
[1] = biological target: T1, Steryl-sulfatase (Homo sapiens) (UniProt P08842); experiment: In vitro inhibition of [6,7-3H]E1S binding to steroid sulfatase in JEG-3 human placental carcinoma cells; Not active
T1 sequence (whole entry): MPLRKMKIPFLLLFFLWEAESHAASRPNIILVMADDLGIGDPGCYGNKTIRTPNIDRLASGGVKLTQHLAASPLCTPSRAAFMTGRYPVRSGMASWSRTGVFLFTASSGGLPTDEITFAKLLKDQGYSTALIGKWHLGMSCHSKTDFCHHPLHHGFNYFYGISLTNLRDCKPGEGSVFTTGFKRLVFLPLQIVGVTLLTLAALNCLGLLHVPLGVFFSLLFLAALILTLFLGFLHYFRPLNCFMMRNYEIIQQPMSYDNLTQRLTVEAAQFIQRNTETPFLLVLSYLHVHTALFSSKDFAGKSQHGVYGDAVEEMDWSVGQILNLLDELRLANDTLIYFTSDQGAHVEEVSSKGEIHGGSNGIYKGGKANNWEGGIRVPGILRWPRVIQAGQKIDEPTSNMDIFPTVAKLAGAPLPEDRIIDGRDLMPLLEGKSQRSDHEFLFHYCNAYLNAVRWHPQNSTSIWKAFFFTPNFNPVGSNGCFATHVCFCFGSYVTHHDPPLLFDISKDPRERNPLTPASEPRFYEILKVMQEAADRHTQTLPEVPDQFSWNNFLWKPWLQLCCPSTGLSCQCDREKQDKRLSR

Aromatase [2] = biological target: T2, Aromatase (Homo sapiens, UniProt P11511)
T2 sequence (P11511 whole entry): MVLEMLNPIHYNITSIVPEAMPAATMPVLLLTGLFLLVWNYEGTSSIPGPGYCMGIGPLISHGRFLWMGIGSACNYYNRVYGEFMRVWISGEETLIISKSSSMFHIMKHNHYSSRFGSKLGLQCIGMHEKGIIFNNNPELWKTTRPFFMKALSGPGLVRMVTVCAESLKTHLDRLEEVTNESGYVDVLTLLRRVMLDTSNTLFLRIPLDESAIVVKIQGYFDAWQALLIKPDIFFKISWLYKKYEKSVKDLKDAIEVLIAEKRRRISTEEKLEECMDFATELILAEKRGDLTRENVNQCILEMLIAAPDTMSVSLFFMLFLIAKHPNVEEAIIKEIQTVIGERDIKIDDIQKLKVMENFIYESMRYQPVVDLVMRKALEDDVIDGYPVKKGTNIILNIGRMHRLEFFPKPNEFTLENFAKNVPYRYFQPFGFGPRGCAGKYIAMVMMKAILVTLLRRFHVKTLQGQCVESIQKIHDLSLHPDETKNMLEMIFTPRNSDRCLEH
Description: In vitro inhibition of [1-beta-3H]-androstenedione binding to Cytochrome P450 19A1 of JEG-3 human placental carcinoma cells

[3] = biological target: T1, Steryl-sulfatase (Homo sapiens); details: 3.3 nM
Description: In vitro inhibition of [6,7-3H]E1S binding to steroid sulfatase in JEG-3 human placental carcinoma cells at 3.3 nM

Aromatase [4] = biological target: T2, Aromatase; experiment: Percent reduction in aromatase P450 19A1 binding inhibition after JEG-3 cell pretreatment at 1 uM (from 86.5+/-1.4% to 23+/-1%); type: cell-based; details: jeg-3, 1 µM
[5] = biological target: T1, Steryl-sulfatase (Homo sapiens); details: JEG-3, 1 uM

With N#Cc1ccc(N(Cc2ccc(Br)cc2)n2cnnc2)cc1 the NA [1] was “inactive” and the IC50 (Aromatase [2]) was 0.5 nM.
NS(=O)(=O)Oc1ccc2c3c(c(=O)oc2c1)CCCCC3 showed an inhibition [3] of 50%.
For N#Cc1ccc(N(Cc2ccc(OS(N)(=O)=O)cc2)n2cnnc2)cc1, the Reduction (Aromatase [4]) was 63.5% and the NS [5] was “inactive”.
